Key:
[1] = test system: tracheal airway epithelial cells; test: Post-polidocanol injury mouse tracheal histological time series; format: in vivo
Text: Intra-tracheal delivery of polidocanol was employed to ablate tracheal airway epithelial cells (see e.g., FIG. 9A). […] Am J Resp Cell Mol 24, 662-670; Engler et al. (2020). Cell Reports 33, 108553; the contents of which are incorporated herein by reference in their entireties. It is contemplated herein that acute epithelial sloughing can generate a temporarily exposed niche on the airway basement membrane for exogenous cells to land. To determine the time window for BC transplantation post polidocanol-mediated injury, tracheal tissues were analyzed in a time series following injury. […] Therefore, donor cells were transplanted five hours post-injury.
Adult recipient mice (8-16 weeks old) were used for all transplantation studies. Tracheal epithelial injury was induced in isoflurane anesthetized mice by intratracheal delivery of 20 μL of 2% polidocanol using the tongue pull method, followed by recovery prior to cell delivery 5-5.5 hours later. Specifically, the recipient animal was anesthetized with 3% isoflurane until the animal developed exaggerated respiratory movements at rates of 1-1.5 breath/second. Then the mouse was lightly restrained by operator, while a second operator delivered polidocanol solution directly into the posterior oropharynx of the mouse. The nose was gently held to encourage the animal to aspirate through the […], about 2-4 times, or until the liquid was no longer visible. For cell transplants, mice were re-anesthetized and 6×10^6 primary BCs or iBCs suspended in 20 μL of DMEM were intratracheally instilled as above.

[2] = test system: tracheal airway epithelial cells; details: Borthwick et al. 2001; Engler et al. 2020; cited from earlier work

In the case of `CCCCCCCCCCCCOCCOCCOCCOCCOCCOCCOCCOCCOCCO` [polidocanol], the “tracheal epithelium state after polidocanol exposure” value ([1]; 12 hours after polidocanol exposure) is reported as “patches of rounded or cuboidal epithelial cells characterized the regenerating epithelium”, the “tracheal epithelial sloughing after polidocanol exposure” value ([1]; five hours after polidocanol exposure) is reported as “epithelial sloughing was more complete with sporadic residual individual cells and more denuded basement membrane” and the “tracheal epithelium state after polidocanol exposure” value ([1]; seven hours after polidocanol exposure) is reported as “residual cells had flattened to cover the basement membrane”. For the same compound, the “tracheal epithelial sloughing after polidocanol exposure” value ([1]; three hours after polidocanol exposure, 20 μL of 2% polidocanol intratracheal, H&E) was “Extensive epithelial sloughing” and the “time to tracheal epithelial sloughing after polidocanol exposure” value [2] was “within three hours”.

Reference: US20250090597A1, “AIRWAY BASAL CELL ENGRAFTMENT METHODS” (TRUSTEES OF BOSTON UNIVERSITY, priority 2023, published 2025)
